Columns and labels:
Test in all cases: RBC kinase panel
Format in all cases: biochemical
Details in all cases: ATP 10 μM, Data1, Data2
AKT2 = molecular target: T1, AKT2 (Homo sapiens, UniProt P31751)
T1 construct: purchased Reaction Biology Corporation
Summary of the method: (§1)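 Test compound was screened at a single concentration of 1 μM, in duplicate, across a panel of 369 human kinases. Every kinase reaction contained 10 μM ATP.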

AKT3 = molecular target: T2, AKT3 (Homo sapiens, UniProt Q9Y243)
T2 construct: purchased Reaction Biology Corporation
Summary of the method: as §1

ALK1/ACVRL1 = molecular target: T3, ALK1/ACVRL1 (Homo sapiens, UniProt P37023)
T3 construct: purchased Reaction Biology Corporation
Summary of the method: as §1

Aurora C = molecular target: T4, Aurora C (Homo sapiens, UniProt Q9UQB9)
T4 construct: purchased Reaction Biology Corporation
Summary of the method: as §1

BMX/ETK = molecular target: T5, BMX/ETK (Homo sapiens, UniProt P51813)
T5 construct: purchased Reaction Biology Corporation
Summary of the method: as §1

BTK = molecular target: T6, BTK (Homo sapiens, UniProt Q06187)
T6 construct: purchased Reaction Biology Corporation
T6 sequence (Q06187 whole entry): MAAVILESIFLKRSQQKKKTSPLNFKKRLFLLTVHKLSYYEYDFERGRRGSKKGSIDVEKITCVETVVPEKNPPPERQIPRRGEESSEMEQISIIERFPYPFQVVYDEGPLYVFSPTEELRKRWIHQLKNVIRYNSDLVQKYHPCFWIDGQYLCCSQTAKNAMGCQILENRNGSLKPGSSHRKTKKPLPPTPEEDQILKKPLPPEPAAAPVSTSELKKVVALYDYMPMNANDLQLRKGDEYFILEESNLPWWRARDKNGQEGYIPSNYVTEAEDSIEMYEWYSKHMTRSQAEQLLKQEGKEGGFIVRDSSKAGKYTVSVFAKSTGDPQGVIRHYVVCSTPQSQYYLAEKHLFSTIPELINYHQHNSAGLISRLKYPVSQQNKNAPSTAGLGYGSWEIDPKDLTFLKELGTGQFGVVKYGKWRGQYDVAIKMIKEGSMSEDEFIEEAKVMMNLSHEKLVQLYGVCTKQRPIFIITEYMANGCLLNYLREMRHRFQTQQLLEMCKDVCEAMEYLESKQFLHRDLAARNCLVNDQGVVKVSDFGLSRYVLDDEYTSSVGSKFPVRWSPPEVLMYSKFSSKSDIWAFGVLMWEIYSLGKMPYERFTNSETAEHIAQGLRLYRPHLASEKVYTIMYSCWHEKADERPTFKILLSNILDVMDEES
Summary of the method: as §1

CAMKK2 = molecular target: T7, CAMKK2 (Homo sapiens, UniProt Q96RR4)
T7 construct: purchased Reaction Biology Corporation
Summary of the method: as §1

CDK5/p35 = molecular target: T8, CDK5/p35 (Homo sapiens, UniProt Q00535)
T8 construct: purchased Reaction Biology Corporation
Summary of the method: as §1

CDK7/cyclin H = molecular target: T9, CDK7/cyclin H (Homo sapiens, UniProt P50613)
T9 construct: purchased Reaction Biology Corporation
Summary of the method: as §1

CK1g3 = molecular target: T10, CK1g3 (Homo sapiens, UniProt Q9Y6M4)
T10 construct: purchased Reaction Biology Corporation
Summary of the method: as §1

DMPK2 = molecular target: T11, DMPK2 (Homo sapiens, UniProt Q6DT37)
T11 construct: purchased Reaction Biology Corporation
T11 sequence (Q6DT37 whole entry): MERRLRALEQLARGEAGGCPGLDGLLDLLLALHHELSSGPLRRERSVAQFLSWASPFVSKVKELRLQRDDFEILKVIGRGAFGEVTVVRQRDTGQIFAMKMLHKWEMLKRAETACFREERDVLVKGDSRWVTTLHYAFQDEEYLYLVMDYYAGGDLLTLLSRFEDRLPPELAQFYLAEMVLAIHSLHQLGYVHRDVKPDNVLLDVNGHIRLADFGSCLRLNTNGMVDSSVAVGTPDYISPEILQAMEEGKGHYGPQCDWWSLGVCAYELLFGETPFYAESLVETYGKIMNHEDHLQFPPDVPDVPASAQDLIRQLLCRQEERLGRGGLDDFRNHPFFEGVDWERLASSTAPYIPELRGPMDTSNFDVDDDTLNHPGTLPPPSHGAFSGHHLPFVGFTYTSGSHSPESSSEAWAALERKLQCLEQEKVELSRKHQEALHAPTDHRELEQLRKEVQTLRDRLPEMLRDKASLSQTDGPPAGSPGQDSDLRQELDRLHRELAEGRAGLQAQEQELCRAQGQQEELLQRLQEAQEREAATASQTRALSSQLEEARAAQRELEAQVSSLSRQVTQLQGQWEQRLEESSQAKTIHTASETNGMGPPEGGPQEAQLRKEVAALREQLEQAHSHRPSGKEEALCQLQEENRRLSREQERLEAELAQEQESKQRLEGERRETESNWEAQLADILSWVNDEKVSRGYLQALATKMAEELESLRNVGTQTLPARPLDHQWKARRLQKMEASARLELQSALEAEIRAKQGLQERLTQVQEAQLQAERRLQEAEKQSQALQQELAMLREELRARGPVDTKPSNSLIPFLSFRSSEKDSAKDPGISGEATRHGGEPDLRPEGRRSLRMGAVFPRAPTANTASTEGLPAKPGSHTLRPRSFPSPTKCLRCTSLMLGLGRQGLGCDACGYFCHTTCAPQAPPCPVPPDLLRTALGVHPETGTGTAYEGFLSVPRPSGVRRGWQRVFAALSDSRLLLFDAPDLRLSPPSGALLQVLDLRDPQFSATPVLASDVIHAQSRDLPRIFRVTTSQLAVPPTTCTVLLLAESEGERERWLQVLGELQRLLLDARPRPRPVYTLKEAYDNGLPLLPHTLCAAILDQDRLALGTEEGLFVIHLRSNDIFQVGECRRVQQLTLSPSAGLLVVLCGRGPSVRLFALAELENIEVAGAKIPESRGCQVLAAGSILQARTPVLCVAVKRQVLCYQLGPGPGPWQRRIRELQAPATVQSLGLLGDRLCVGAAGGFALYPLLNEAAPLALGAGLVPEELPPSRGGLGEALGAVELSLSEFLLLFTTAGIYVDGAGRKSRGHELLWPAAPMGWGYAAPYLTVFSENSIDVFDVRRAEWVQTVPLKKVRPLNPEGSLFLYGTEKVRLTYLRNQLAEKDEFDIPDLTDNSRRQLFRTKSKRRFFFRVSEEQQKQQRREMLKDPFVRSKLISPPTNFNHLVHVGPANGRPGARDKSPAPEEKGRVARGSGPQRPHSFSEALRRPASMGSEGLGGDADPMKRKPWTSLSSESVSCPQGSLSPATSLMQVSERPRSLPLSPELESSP
Summary of the method: as §1

ERK2/MAPK1 = molecular target: T12, ERK2/MAPK1 (Homo sapiens, UniProt P28482)
T12 construct: purchased Reaction Biology Corporation
Summary of the method: as §1

FLT1/VEGFR1 = molecular target: T13, FLT1/VEGFR1 (Homo sapiens, UniProt P17948)
T13 construct: purchased Reaction Biology Corporation
Summary of the method: as §1

FLT3 = molecular target: T14, FLT3 (Homo sapiens, UniProt P36888)
T14 construct: purchased Reaction Biology Corporation
Summary of the method: as §1

FMS = molecular target: T15, FMS (Homo sapiens, UniProt P07333)
T15 construct: purchased Reaction Biology Corporation
Summary of the method: as §1

GRK6 = molecular target: T16, GRK6 (Homo sapiens, UniProt P43250)
T16 construct: purchased Reaction Biology Corporation
Summary of the method: as §1

IGF1R = molecular target: T17, IGF1R (Homo sapiens, UniProt P08069)
T17 construct: purchased Reaction Biology Corporation
Summary of the method: as §1

LATS1 = molecular target: T18, LATS1 (Homo sapiens, UniProt O95835)
T18 construct: purchased Reaction Biology Corporation
Summary of the method: as §1

MLK3/MAP3K11 = molecular target: T19, MLK3/MAP3K11 (Homo sapiens, UniProt Q16584)
T19 construct: purchased Reaction Biology Corporation
T19 sequence (Q16584 whole entry): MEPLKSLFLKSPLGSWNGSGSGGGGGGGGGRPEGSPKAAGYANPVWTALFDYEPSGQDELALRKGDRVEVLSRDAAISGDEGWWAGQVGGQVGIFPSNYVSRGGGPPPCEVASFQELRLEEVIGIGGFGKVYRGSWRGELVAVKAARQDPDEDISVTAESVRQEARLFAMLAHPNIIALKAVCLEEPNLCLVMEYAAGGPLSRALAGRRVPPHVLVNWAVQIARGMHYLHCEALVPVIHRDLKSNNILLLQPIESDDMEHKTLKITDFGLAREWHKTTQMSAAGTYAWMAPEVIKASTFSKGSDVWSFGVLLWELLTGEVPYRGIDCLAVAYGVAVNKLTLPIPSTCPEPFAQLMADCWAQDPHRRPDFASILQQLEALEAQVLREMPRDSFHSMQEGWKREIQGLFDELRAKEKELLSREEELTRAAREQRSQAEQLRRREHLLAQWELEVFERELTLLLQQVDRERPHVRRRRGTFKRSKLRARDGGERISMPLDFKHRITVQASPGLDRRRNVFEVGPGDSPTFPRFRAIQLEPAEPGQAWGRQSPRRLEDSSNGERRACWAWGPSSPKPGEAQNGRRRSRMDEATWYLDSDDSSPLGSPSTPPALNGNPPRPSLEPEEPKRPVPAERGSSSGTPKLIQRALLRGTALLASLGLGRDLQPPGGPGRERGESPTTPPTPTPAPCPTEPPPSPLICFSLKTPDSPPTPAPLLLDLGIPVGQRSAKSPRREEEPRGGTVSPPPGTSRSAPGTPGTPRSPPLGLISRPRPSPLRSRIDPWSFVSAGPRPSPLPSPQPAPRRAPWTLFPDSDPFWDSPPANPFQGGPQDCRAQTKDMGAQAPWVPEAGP
Summary of the method: as §1

MLK4 = molecular target: T20, MLK4 (Homo sapiens, UniProt Q5TCX8)
T20 construct: purchased Reaction Biology Corporation
Summary of the method: as §1

MST4 = molecular target: T21, MST4 (Homo sapiens, UniProt Q9P289)
T21 construct: purchased Reaction Biology Corporation
Summary of the method: as §1

NEK1 = molecular target: T22, NEK1 (Homo sapiens, UniProt Q96PY6)
T22 construct: purchased Reaction Biology Corporation
Summary of the method: as §1

PDK1/PDPK1 = molecular target: T23, PDK1/PDPK1 (Homo sapiens, UniProt O15530)
T23 construct: purchased Reaction Biology Corporation
Summary of the method: as §1

PEAK1 = molecular target: T24, PEAK1 (Homo sapiens, UniProt Q9H792)
T24 construct: purchased Reaction Biology Corporation
Summary of the method: as §1

PHKg1 = molecular target: T25, PHKg1 (Homo sapiens, UniProt Q16816)
T25 construct: purchased Reaction Biology Corporation
Summary of the method: as §1

PKCzeta = molecular target: T26, PKCzeta (Homo sapiens, UniProt Q05513)
T26 construct: purchased Reaction Biology Corporation
Summary of the method: as §1

PKG2/PRKG2 = molecular target: T27, PKG2/PRKG2 (Homo sapiens, UniProt Q13237)
T27 construct: purchased Reaction Biology Corporation
Summary of the method: as §1

PKN1/PRK1 = molecular target: T28, PKN1/PRK1 (Homo sapiens, UniProt Q16512)
T28 construct: purchased Reaction Biology Corporation
T28 sequence (Q16512 whole entry): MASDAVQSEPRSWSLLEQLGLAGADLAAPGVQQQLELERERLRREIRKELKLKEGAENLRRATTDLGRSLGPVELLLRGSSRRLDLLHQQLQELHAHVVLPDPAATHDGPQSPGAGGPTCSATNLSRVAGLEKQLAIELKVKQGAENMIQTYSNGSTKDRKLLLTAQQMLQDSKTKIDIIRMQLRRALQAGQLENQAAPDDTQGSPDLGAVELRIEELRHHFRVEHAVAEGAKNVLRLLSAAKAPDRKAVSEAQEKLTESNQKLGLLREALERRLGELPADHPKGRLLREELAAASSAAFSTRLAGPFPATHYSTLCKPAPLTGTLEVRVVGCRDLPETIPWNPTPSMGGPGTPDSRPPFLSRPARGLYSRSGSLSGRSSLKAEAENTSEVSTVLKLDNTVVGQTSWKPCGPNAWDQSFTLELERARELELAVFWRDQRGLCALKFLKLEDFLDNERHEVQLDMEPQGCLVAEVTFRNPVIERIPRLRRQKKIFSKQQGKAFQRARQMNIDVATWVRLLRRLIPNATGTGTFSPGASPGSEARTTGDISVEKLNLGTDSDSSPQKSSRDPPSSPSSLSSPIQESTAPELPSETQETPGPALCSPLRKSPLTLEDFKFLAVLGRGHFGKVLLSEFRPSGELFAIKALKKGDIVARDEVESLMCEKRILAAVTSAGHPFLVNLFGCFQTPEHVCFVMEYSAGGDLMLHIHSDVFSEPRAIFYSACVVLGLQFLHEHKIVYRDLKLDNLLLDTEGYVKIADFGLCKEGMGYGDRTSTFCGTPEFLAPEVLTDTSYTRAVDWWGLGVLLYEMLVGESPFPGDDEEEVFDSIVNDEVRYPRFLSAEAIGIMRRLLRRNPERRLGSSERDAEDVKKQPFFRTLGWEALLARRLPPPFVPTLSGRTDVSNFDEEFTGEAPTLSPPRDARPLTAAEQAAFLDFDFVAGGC
Summary of the method: as §1

TYK1/LTK = molecular target: T29, TYK1/LTK (Homo sapiens, UniProt P29376)
T29 construct: purchased Reaction Biology Corporation
Summary of the method: as §1

ULK1 = molecular target: T30, ULK1 (Homo sapiens, UniProt O75385)
T30 construct: purchased Reaction Biology Corporation
Summary of the method: as §1

YSK4/MAP3K19 = molecular target: T31, YSK4/MAP3K19 (Homo sapiens, UniProt Q56UN5)
T31 construct: purchased Reaction Biology Corporation
Summary of the method: as §1

c-MER = molecular target: T32, c-MER (Homo sapiens, UniProt Q12866)
T32 construct: purchased Reaction Biology Corporation
T32 sequence (Q12866 21-999): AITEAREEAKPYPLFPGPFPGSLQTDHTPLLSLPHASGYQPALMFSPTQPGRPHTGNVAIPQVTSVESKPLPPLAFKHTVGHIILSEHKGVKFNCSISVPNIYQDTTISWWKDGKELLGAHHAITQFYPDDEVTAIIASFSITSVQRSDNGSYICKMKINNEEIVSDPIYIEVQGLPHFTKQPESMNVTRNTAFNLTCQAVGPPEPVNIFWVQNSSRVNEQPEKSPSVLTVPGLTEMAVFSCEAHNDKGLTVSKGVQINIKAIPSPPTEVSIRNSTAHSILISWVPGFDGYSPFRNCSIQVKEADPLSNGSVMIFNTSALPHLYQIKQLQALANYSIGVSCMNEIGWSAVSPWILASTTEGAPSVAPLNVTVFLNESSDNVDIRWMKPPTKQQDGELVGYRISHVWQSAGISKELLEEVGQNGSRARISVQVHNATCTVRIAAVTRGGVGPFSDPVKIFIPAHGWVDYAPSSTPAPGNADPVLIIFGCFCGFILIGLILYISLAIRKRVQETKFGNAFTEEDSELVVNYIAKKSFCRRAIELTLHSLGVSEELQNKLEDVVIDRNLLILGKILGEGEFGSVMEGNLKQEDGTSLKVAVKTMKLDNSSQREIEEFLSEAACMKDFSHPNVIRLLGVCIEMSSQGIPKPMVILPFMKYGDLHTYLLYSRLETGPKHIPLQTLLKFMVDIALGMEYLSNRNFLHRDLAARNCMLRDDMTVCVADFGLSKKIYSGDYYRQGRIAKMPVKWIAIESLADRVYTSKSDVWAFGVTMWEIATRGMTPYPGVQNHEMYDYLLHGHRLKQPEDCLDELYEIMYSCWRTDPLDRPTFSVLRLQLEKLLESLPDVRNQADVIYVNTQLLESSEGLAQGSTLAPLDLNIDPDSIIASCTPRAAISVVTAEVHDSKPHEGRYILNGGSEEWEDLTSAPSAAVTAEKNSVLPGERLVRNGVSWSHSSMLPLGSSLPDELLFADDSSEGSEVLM
Summary of the method: as §1

c-MET = molecular target: T33, c-MET (Homo sapiens, UniProt P08581)
T33 construct: purchased Reaction Biology Corporation
Summary of the method: as §1

Compound: CC(=O)Nc1nc2ccc(-c3cnc(C)c(NC(=O)OC4CCCCC4)c3)cc2s1 [PK68, cyclohexyl (5-(2-acetamidobenzo[d]thiazol-6-yl)-2-methylpyridin-3-yl)carbamate]
- Activity% (AKT2; 1 μM): 96.89%
- activity at 1 µM (AKT2): 97.5%
- Activity% (AKT3; 1 μM): 98.71%
- activity at 1 µM (AKT3): 100%
- Activity% (ALK1/ACVRL1; 1 μM): 91.76%
- activity at 1 µM (ALK1/ACVRL1): 95.2%
- Activity% (Aurora C; 1 μM): 92.22%
- activity at 1 µM (Aurora C): 94.1%
- Activity% (BMX/ETK; 1 μM): 99.71%
- activity at 1 µM (BMX/ETK): 99.9%
- Activity% (BTK; 1 μM): 90.38%
- activity at 1 µM (BTK): 91.2%
- Activity% (CAMKK2; 1 μM): 79.89%
- activity at 1 µM (CAMKK2): 80.1%
- Activity% (CDK5/p35; 1 μM): 100.63%
- activity at 1 µM (CDK5/p35): 102%
- Activity% (CDK7/cyclin H; 1 μM): 87.73%
- activity at 1 µM (CDK7/cyclin H): 89.2%
- Activity% (CK1g3; 1 μM): 87.02%
- activity at 1 µM (CK1g3): 87.1%
- Activity% (DMPK2; 1 μM): 96.42%
- activity at 1 µM (DMPK2): 98.3%
- Activity% (ERK2/MAPK1; 1 μM): 92.60%
- activity at 1 µM (ERK2/MAPK1): 96.9%
- Activity% (FLT1/VEGFR1; 1 μM): 100.00%
- activity at 1 µM (FLT1/VEGFR1): 100%
- Activity% (FLT3; 1 μM): 57.70%
- activity at 1 µM (FLT3): 58%
- Activity% (FMS; 1 μM): 71.06%
- activity at 1 µM (FMS): 71.1%
- Activity% (GRK6; 1 μM): 99.89%
- activity at 1 µM (GRK6): 102%
- Activity% (IGF1R; 1 μM): 103.88%
- activity at 1 µM (IGF1R): 104%
- Activity% (LATS1; 1 μM): 101.83%
- activity at 1 µM (LATS1): 103%
- Activity% (MLK3/MAP3K11; 1 μM): 82.77%
- activity at 1 µM (MLK3/MAP3K11): 82.9%
- Activity% (MLK4; 1 μM): 104.45%
- activity at 1 µM (MLK4): 107%
- Activity% (MST4; 1 μM): 101.18%
- activity at 1 µM (MST4): 102%
- Activity% (NEK1; 1 μM): 95.75%
- activity at 1 µM (NEK1): 96%
- Activity% (PDK1/PDPK1; 1 μM): 90.43%
- activity at 1 µM (PDK1/PDPK1): 92.7%
- Activity% (PEAK1; 1 μM): 100.13%
- activity at 1 µM (PEAK1): 103%
- Activity% (PHKg1; 1 μM): 93.46%
- activity at 1 µM (PHKg1): 93.6%
- Activity% (PKCzeta; 1 μM): 102.04%
- activity at 1 µM (PKCzeta): 103%
- Activity% (PKG2/PRKG2; 1 μM): 106.03%
- activity at 1 µM (PKG2/PRKG2): 108%
- Activity% (PKN1/PRK1; 1 μM): 96.02%
- activity at 1 µM (PKN1/PRK1): 97.8%
- Activity% (TYK1/LTK; 1 μM): 98.39%
- activity at 1 µM (TYK1/LTK): 99.8%
- Activity% (ULK1; 1 μM): 100.13%
- activity at 1 µM (ULK1): 105%
- Activity% (YSK4/MAP3K19; 1 μM): 94.66%
- activity at 1 µM (YSK4/MAP3K19): 95%
- Activity% (c-MER; 1 μM): 84.20%
- activity at 1 µM (c-MER): 86%
- Activity% (c-MET; 1 μM): 101.99%
- activity at 1 µM (c-MET): 102%

Reference: publication PMC6591251, “Discovery of potent necroptosis inhibitors targeting RIPK1 kinase activity for the treatment of inflammatory disorder and cancer metastasis” (Cell Death & Disease, 2019)
